From patent publication US10174023B2, “Heterocyclic-imidazole compounds, pharmaceutical compositions thereof, preparation method therefor and use thereof” (SHANGHAI HUILUN LIFE SCIENCE & TECHNOLOGY CO., LTD, priority 2015, dated 2019) come the findings set out here.

Like-named read-outs stand apart in the source and are kept apart here. A value given as a limit tells only on which side of the number the result lay.

The test system of assay [1] is Human breast cancer MDA-MB-436 cells. As to the kind of experiment: Tumor inhibition in nude mice tumor model transplanted with human breast cancer MDA-MB-436 cells. The assay is classed as in vivo, BALB/cA-nude mice. To be noted: MDA-MB-436 xenograft in nude mice, oral, 30 mg/kg, once a day, consecutive 14 days. As to the method: (§1) Example 3. Test of Tumor Inhibition Effect of Compounds of the Present Invention in Mice The following experiments were conducted to evaluate and compare the effects of the present compound alone in mice tumor models transplanted with human breast cancer cell line MDA-MB-436, human breast cancer cell line MX-1 or human pancreatic cancer cell line CAPAN-1 in vivo.
(§2) Test Compound: Example Compound (4)
(§3) BALB/cA-nude mice, 6-7 weeks, female, available from Shanghai SLAC Laboratory Animal Co., Ltd. Certificate number: SCXK (Shanghai) 2012-0002. Breeding environment: SPF grade.
(§4) The Nude mice were subcutaneously inoculated with human breast cancer MDA-MB-436 cells, human breast cancer MX-1 cells or human pancreatic cancer CAPAN-1 cells. After the tumor grew to 100-200 mm^3, the animals were grouped at random (D0). The tumor volume was measured twice or thrice a week, the body weight of the mice was weighed, and the data was recorded. The tumor volume (V) is calculated by using a formula below: V=½×a×b^2 […]
(§5) in which a, and b denote the length and width. T/C(%)=(T−T0)/(C−C0)×100 in which T are C are the tumor volumes at the end of the experiment; and T0 and C0 are the tumor volumes at the beginning of the experiment.
Background: In xenograft studies the graft and the host belong to different species.

The subject of assay [2] is Human pancreatic cancer CAPAN-1 cells. As to the kind of experiment: Tumor inhibition in nude mice tumor model transplanted with human pancreatic cancer CAPAN-1 cells. In kind it is in vivo, BALB/cA-nude mice. To be noted: CAPAN-1 xenograft in nude mice, oral, 50 mg/kg, once a day, consecutive 21 days. As to the method:
as §1, §2, §3, §4, §5

The test system of the next assay is MDA-MB-436 cells. As to the kind of experiment: Cell proliferation inhibition assay (CellTiter-Glo, 120 hrs). In kind it is cell-based, human. To be noted: 120 hrs incubation, read-out: ED50 (MDA-MB-436). Here is the method: Example 2. Cell Proliferation Inhibition Assay
The proliferation inhibitory activity of the compound of the present invention on the breast cancer cell line MDA-MB-436 of triple negative phenotype was tested in vitro.
1. Tumor cell line MDA-MB-436 supplied from HD Biosciences (Shanghai) Co., Ltd., and passed the Mycoplasma detection.
7. CellTiter-Glo Luminescent Cell Viability Assay, Promega, Catalog #: G7571.
Formulation of Compound Solutions
1. Each test compound was formulated into a 60 mM stock solution in DMSO, packaged, and stored in a freezer at −80°. The stock solution of each test compound was serially diluted in DMSO to give solutions at various concentration gradients, including 6 mM, 2 mM, 0.6 mM, 0.2 mM, 60 μM, and 20 μM.
2. Just before experiment, the formulated solution at various concentration gradients of each test compound was aseptically 100-fold diluted in the complete cell culture medium. In this case, the concentration gradients of the test compound included 60 μM, 20 μM, 6 μM, 2 μM, 0.6 μM, and 0.2 μM. These were 2× compound solutions, and could be used to treat the cells.
3. The stock solution of Compounds (1) to (21) and the control compound AZD2281 was serially diluted in DMSO to give solutions at various concentration gradients, including 20 μM, 2 μM, 0.2 μM, 0.02 μM, 0.002 μM, and 0.0002 μM. Before experiment, the formulated solution at various concentration gradients of each test compound was aseptically 100-fold diluted in the complete cell culture medium. The concentration gradients of the positive compound included 200 nM, 20 nM, 2 nM, 0.2 nM, 0.02 nM, and 0.002 nM. These were 2× compound solutions, and could be used to treat the cells.
1. One day before treatment with the compounds, the cells were inoculated into a 96-well plate at a density of 8000 cells/50 μl/well.
2. On the following day, the formulated 2× compound solutions were added, in accordance with a compound arrangement pattern, to the plate in an amount of 50 μl/well.
3. The plate was gently agitaged, and incubated for 120 hrs in an incubator at 37° C.
4. After incubation, the formulated reagent was added to the plate following instruction of the CellTiter Glo reagent, fully mixed, and incubated for 10 min at room temperature in the dark.
5. The plate was analyzed on a plate reader, the chemiluminescence was read, and the data was recorded.
The reading of each well needs to be converted into cell viability. The cell viability can be calculated using the following formula: […]
The processed data was subjected to non-linear regression analysis by using the GraphPad Prism5 analysis software, to obtain a dose-response curve; and the median effective dose (ED50) of test compounds for the MDA-MB-436 cells was calculated.

Assay [3] deals with Human breast cancer MX-1 cells. As to the kind of experiment: Tumor inhibition in nude mice tumor model transplanted with human breast cancer MX-1 cells. In kind it is in vivo, BALB/cA-nude mice. To be noted: MX-1 xenograft in nude mice, oral, 50 mg/kg, once a day, consecutive 21 days. As to the method: as §1, §2, §3, §4, §5

Turning to `O=C(c1cc(Cc2n[nH]c(=O)c3ccccc23)ccc1F)N1CCN(C(=O)C2CC2)CC1` [AZD2281, reference compound], the Tumor inhibition in assay [1] is given as 83%; in assay [2] it was 57%; in assay [3], 13%. Also, in the assay on MDA-MB-436 cells (Homo sapiens), the IC50 was > 25 µM.

Consider `O=C(c1cc(Cc2n[nH]c(=O)c3ccccc23)ccc1F)N1CCN(c2ccc3[nH]nnc3n2)CC1` [Compound (1), 4-(3-(4-(1H-[1,2,3]triazolo[4,5-b]pyridin-5-yl)piperazine-1-carbonyl)-4-fluorobenzyl)phthalazin-1(2H)-one], for which the IC50 in the assay on MDA-MB-436 cells (Homo sapiens) was > 25 µM.

Take `Cc1nc2nc(N3CCN(C(=O)c4cc(Cc5n[nH]c(=O)c6ccccc56)ccc4F)CC3)ccc2[nH]1` [Compound (2), 4-(4-fluoro-3-(4-(2-methyl-1H-imidazo[4,5-b]pyridin-5-yl)piperazine-1-carbonyl)benzyl)phthalazin-1(2H)-one]: the IC50 in the assay on MDA-MB-436 cells (Homo sapiens) was > 25 µM.

In the case of `O=C(c1cc(Cc2n[nH]c(=O)c3ccccc23)ccc1F)N1CCN(c2ccc3[nH]c(C(F)(F)F)nc3n2)CC1` [Compound (3)], in the assay on MDA-MB-436 cells, the IC50 was >25 µM.

On to `O=C(c1cc(Cc2n[nH]c(=O)c3ccccc23)ccc1F)N1CCN(c2ccc3[nH]cnc3n2)CC1` [Compound (4), 4-(3-(4-(1H-imidazo[4,5-b]pyridin-5-yl)piperazine-1-carbonyl)-4-fluorobenzyl)phthalazin-1(2H)-one], for which the Tumor inhibition in assay [1] worked out at 191%; in assay [2], 128%; in assay [3], 193%. Moreover, in the assay with MDA-MB-436 cells (Homo sapiens), the IC50 is 0.7 µM.

Regarding `O=C(c1cc(Cc2n[nH]c(=O)c3ccccc23)ccc1F)N1CCN(c2ccc3[nH]c(=O)[nH]c3n2)CC1` [Compound (5), 4-(4-fluoro-3-(4-(2-oxo-2,3-dihydro-1H-imidazo[4,5-b]pyridin-5-yl)piperazine-1-carbonyl)benzyl)phthalazin-1(2H)-one], the IC50 with MDA-MB-436 cells (Homo sapiens) is > 25 µM.

In the case of `O=C(c1cc(Cc2n[nH]c(=O)c3ccccc23)ccc1F)N1CCN(c2cc3nc[nH]c3cn2)CC1` [Compound (6), 4-(3-(4-(3H-imidazo[4,5-c]pyridin-6-yl)piperazine-1-carbonyl)-4-fluorobenzyl)phthalazin-1(2H)-one], in the assay with MDA-MB-436 cells (Homo sapiens), the IC50 was determined as 18 µM.

For `O=C(c1cc(Cc2n[nH]c(=O)c3ccccc23)ccc1F)N1CCN(c2cnc3[nH]cnc3c2)CC1` [Compound (7), 4-(3-(4-(3H-imidazo[4,5-b]pyridin-6-yl)piperazine-1-carbonyl)-4-fluorobenzyl)phthalazin-1(2H)-one], the IC50 in the assay on MDA-MB-436 cells (Homo sapiens) was > 25 µM.

Consider `O=C(c1cc(Cc2n[nH]c(=O)c3ccccc23)ccc1F)N1CCN(c2ncc3[nH]cnc3n2)CC1` [Compound (8), 4-(3-(4-(7H-purin-2-yl)piperazine-1-carbonyl)-4-fluorobenzyl)phthalazin-1(2H)-one], for which the IC50 in the assay with MDA-MB-436 cells (Homo sapiens) amounted to 1.4 µM.

Regarding `O=C(c1cccc(Cc2n[nH]c(=O)c3ccccc23)c1)N1CCN(c2ccc3[nH]c(=O)[nH]c3n2)CC1` [Compound (9)], the IC50 with MDA-MB-436 cells (Homo sapiens) was > 25 µM.

As to `O=C(c1cccc(Cc2n[nH]c(=O)c3ccccc23)c1)N1CCN(c2ccc3[nH]nnc3n2)CC1` [Compound (10), 4-(3-(4-(1H-[1,2,3]triazolo[4,5-b]pyridin-5-yl)piperazine-1-carbonyl)-benzyl)phthalazin-1 (2H)-one], the IC50 in the assay on MDA-MB-436 cells (Homo sapiens) is > 25 µM.

For the compound `Cc1nc2nc(N3CCN(C(=O)c4cccc(Cc5n[nH]c(=O)c6ccccc56)c4)CC3)ccc2[nH]1` [Compound (11), 4-(3-(4-(2-methyl-1H-imidazo[4,5-b]pyridin-5-yl)piperazine-1-carbonyl)benzyl)phthalazin-1(2H)-one], the IC50 in the assay with MDA-MB-436 cells (Homo sapiens) is > 25 µM.

As to `O=C(c1cccc(Cc2n[nH]c(=O)c3ccccc23)c1)N1CCN(c2ccc3[nH]c(C(F)(F)F)nc3n2)CC1` [Compound (12)], the IC50 in the assay on MDA-MB-436 cells is >25 µM.

Turning to `O=C(c1cccc(Cc2n[nH]c(=O)c3ccccc23)c1)N1CCN(c2ccc3[nH]cnc3n2)CC1` [Compound (13), 4-(3-(4-(1H-imidazo[4,5-b]pyridin-5-yl)piperazine-1-carbonyl)benzyl)phthalazin-1(2H)-one], in the assay on MDA-MB-436 cells (Homo sapiens), the IC50 came out at 0.7 µM.

`COc1ccc(Cc2n[nH]c(=O)c3ccccc23)cc1C(=O)N1CCN(c2ccc3[nH]cnc3n2)CC1` [Compound (14), 4-(3-(4-(1H-imidazo[4,5-b]pyridin-5-yl)piperazine-1-carbonyl)-4-methoxybenzyl)phthalazin-1(2H)-one]: in the assay with MDA-MB-436 cells (Homo sapiens), the IC50 was found to be 6.8 µM.

As for `O=C(c1cc(Cc2n[nH]c(=O)c3ccccc23)ccc1C(F)(F)F)N1CCN(c2ccc3[nH]cnc3n2)CC1` [Compound (15), 4-(3-(4-(1H-imidazo[4,5-b]pyridin-5-yl)piperazine-1-carbonyl)-4-trifluoromethylbenzyl)phthalazin-1(2H)-one], the IC50 in the assay with MDA-MB-436 cells (Homo sapiens) amounted to 23 µM.

Take `O=C(c1cc(Cc2n[nH]c(=O)c3ccccc23)ccc1C(F)(F)F)N1CCN(c2ccc3[nH]nnc3n2)CC1` [Compound (16), 4-(3-(4-(1H-[1,2,3]triazolo[4,5-b]pyridin-5-yl)piperazine-1-carbonyl)-4-trifluoromethylbenzyl)phthalazin-1(2H)-one]: in the assay on MDA-MB-436 cells (Homo sapiens), the IC50 is > 25 µM.

For the compound `O=C(c1cc(Cc2n[nH]c(=O)c3ccccc23)ccc1C(F)(F)F)N1CCN(c2ccc3[nH]c(=O)[nH]c3n2)CC1` [Compound (17), 4-(3-(4-(2-oxo-2,3-dihydro-1H-imidazo[4,5-b]pyridin-5-yl)piperazine-1-carbonyl)-4-trifluoromethylbenzyl)phthalazin-1(2H)-one], the IC50 in the assay on MDA-MB-436 cells (Homo sapiens) is > 25 µM.

For `COc1ccc(Cc2n[nH]c(=O)c3ccccc23)cc1C(=O)N1CCN(c2cc3nc[nH]c3cn2)CC1` [Compound (18), 4-(3-(4-(3H-imidazo[4,5-c]pyridin-6-yl)piperazine-1-carbonyl)-4-methoxybenzyl)phthalazin-1(2H)-one], in the assay on MDA-MB-436 cells (Homo sapiens), the IC50 is > 25 µM.

Regarding `O=C(c1cc(Cc2n[nH]c(=O)c3ccccc23)ccc1C(F)(F)F)N1CCN(c2cc3nc[nH]c3cn2)CC1` [Compound (19), 4-(3-(4-(3H-imidazo[4,5-c]pyridin-6-yl)piperazine-1-carbonyl)-4-trifluoromethylbenzyl)phthalazin-1(2H)-one], in the assay with MDA-MB-436 cells (Homo sapiens), the IC50 is > 25 µM.

Turning to `O=C(c1cc(Cc2n[nH]c(=O)c3ccccc23)ccc1C(F)(F)F)N1CCN(c2cnc3[nH]cnc3c2)CC1` [Compound (20), 4-(3-(4-(3H-imidazo[4,5-b]pyridin-6-yl)piperazine-1-carbonyl)-4-trifluoromethylbenzyl)phthalazin-1(2H)-one], the IC50 with MDA-MB-436 cells (Homo sapiens) was > 25 µM.

Turning to `COc1ccc(Cc2n[nH]c(=O)c3ccccc23)cc1C(=O)N1CCN(c2cnc3[nH]cnc3c2)CC1` [Compound (21), 4-(3-(4-(3H-imidazo[4,5-b]pyridin-6-yl)piperazine-1-carbonyl)-4-methoxybenzyl)phthalazin-1(2H)-one], the IC50 in the assay on MDA-MB-436 cells (Homo sapiens) is > 25 µM.
